By inhibition is commonly meant how much of the control response was suppressed.

The values that follow come from US4164576A, “Benzoxazine carboxamides” (Shell Oil Company, priority 1978, dated 1979).

Each structure is given as a SMILES string.

The subject of this experiment is swine adipose tissue. Kind of experiment: Inhibition of lipogenesis (lipid synthesis from glucose-U-14C) in swine adipose tissue slices. The conditions noted are these: Sus scrofa, 100 micrograms per milliliter, 37° C., 2 hours, 5% DMSO, insulin, triplicate, read-out: Percent Inhibition of lipogenesis compared to control. Format: cell-based. An excerpt:
The manner in which they cause this effect is not known with certainty; it is believed that they interfere with the synthesis of fatty acids in the tissues. Their effectiveness for this purpose has been ascertained by immersing samples of swine adipose tissue in a liquid medium containing radioactive glucose and the test chemical for a period of time, then isolating the lipid from the treated tissue and determining the up-take of the radio-active carbon by means of scintillation counting techniques. These tests were conducted in swine adipose tissue because in swine, the primary site of lipogenesis--i.e., fatty acid synthesis--appears to be adipose tissue.
Described in more detail, the tests were conducted according to the following general procedure:
150 milligrams of slices of swine adipose tissue were incubated at 37° C. for 2 hours with shaking in 3 milliliters of Krebs-Rringer bicarbonate solution containing one-half the normal calcium ion concentration, 60 micromoles of glucose, 0.5 micro-Curie of glucose-U^14 C, and 300 microunits of insulin, and 5% dimethyl sulfoxide (DMSO). The test compounds were added as a solution or suspension in DMSO and were present at a concentration of 100 micrograms per milliliter of the incubation mixture.
The incubation was terminated by addition of 0.25 milliliter of 1 N sulfuric acid. The resulting mixture was extracted with a total of 25 milliliters of chloroform: methanol (2:1 v/v). The extracts were washed according to Folch et al. (J. Biol. Chem., 226, 497-509, (1957)), air dried, and counted in a liquid scintillation counter with 15 milliliters of counting fluid (two parts toluene containing 0.4% w/v New England Nuclear Omnifluor: 1 part Triton X-100). The tests were conducted in triplicate and were accompanied by control tests in which all ingredients,proportions and conditions were the same except that no test compound was included. From the data obtained were calculated the percent inhibition of lipid synthesis by the test compounds in each case. The data obtained from the tests are set out in Table 1, as the percent inhibition of lipogenesis compared to the results obtained in the control tests wherein only the test compound was omitted.
As for `C=CCNC(=O)C1CNc2ccccc2O1` (centres unmarked) [Compound 1, 3,4-dihydro-N-(2-propenyl)-2H-1,4-benzoxazine-2-carboxamide], the inhibition at 100 µg/mL came to 51%. Next, `C=CCNC(=O)C1CN(C)c2ccccc2O1` (centres unmarked) [Compound 2, 3,4-dihydro-4-methyl-N-(2-propenyl)-2H-1,4-benzoxazine-2-carboxamide]: 40%; `C=CCNC(=O)C1CNc2cc(Cl)ccc2O1` (centres unmarked) [Compound 3, 6-chloro-3,4-dihydro-N-(2-propenyl)-2H-1,4-benzoxazine-2-carboxamide]: 63%. Next, `C=CCNC(=O)C1CNc2cc(C)ccc2O1` (centres unmarked) [Compound 4, 6-methyl-3,4-dihydro-N-(2-propenyl)-2H-1,4-benzoxazine-2-carboxamide]: 57%; `C=CCNC(=O)C1CNc2cc(NS(C)(=O)=O)ccc2O1` (centres unmarked) [Compound 5, 3,4-dihydro-6-((methylsulfonyl)amino)-N-(2-propenyl)-2H-1,4-benzoxazine-2-carboxamide]: 40%. For `C=CCNC(=O)C1CNc2cc(C(F)(F)F)ccc2O1` (centres unmarked) [Compound 6, 6-(trifluoromethyl)-3,4-dihydro-N-(2-propenyl)-2H-1,4-benzoxazine-2-carboxamide] the value was 57%; for `C=CCNC(=O)C1CNc2cc(OC)ccc2O1` (centres unmarked) [Compound 7, 3,4-dihydro-6-methoxy-N-(2-propenyl)-2H-1,4-benzoxazine-2-carboxamide], 76%; for `C=CCNC(=O)C1CNc2cccc(Cl)c2O1` (centres unmarked) [Compound 8, 8-chloro-3,4-dihydro-N-(2-propenyl)-2H-1,4-benzoxazine-2-carboxamide], 24%.

Regarding `C=CCNC(=O)C1CNc2cc(Cl)c(Cl)cc2O1` (centres unmarked) [Compound 9, 6,7-dichloro-3,4-dihydro-N-(2-propenyl)-2H-1,4-benzoxazine-2-carboxamide], the inhibition at 100 µg/mL is 44%. Consider `C=CCNC(=O)C1CNc2ccc(C)cc2O1` (centres unmarked) [Compound 10, 3,4-dihydro-7-methyl-N-(2-propenyl)-2H-1,4-benzoxazine-2-carboxamide], for which the inhibition at 100 µg/mL was found to be 21%.

For the molecule `C=CCNC(=O)C1CNc2cc(-c3ccccc3)ccc2O1` (centres unmarked) [Compound 11, 3,4-dihydro-6-phenyl-N-(2-propenyl)-2H-1,4-benzoxazine-2-carboxamide], the inhibition at 100 µg/mL stood at 70%.
